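Interpolation was linear, between the two tested concentrations surrounding the appropriate level; five concentrations were tested over 48 hours in 96-well plates. The concentration for 50% growth inhibition is given as GI50. TGI: total growth inhibition.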
Key:
Assay in all cases: growth of human tumour cells (NCI), 48 h
786-0 renal = tested on: 786-0 renal
A498 renal = tested on: A498 renal
A549 NSCLC = tested on: A549 NSCLC
ACHN renal = tested on: ACHN renal
BT-549 breast = tested on: BT-549 breast
CAKI-1 renal = tested on: CAKI-1 renal
CCRF-CEM leukemia = tested on: CCRF-CEM leukemia
COLO 205 colon = tested on: COLO 205 colon
DU-145 prostate = tested on: DU-145 prostate
EKVX NSCLC = tested on: EKVX NSCLC
HCC-2998 colon = tested on: HCC-2998 colon
HCT-116 colon = tested on: HCT-116 colon
HCT-15 colon = tested on: HCT-15 colon
HL-60(TB) leukemia = tested on: HL-60(TB) leukemia
HOP-62 NSCLC = tested on: HOP-62 NSCLC
HOP-92 NSCLC = tested on: HOP-92 NSCLC
HS 578T breast = tested on: HS 578T breast
HT29 colon = tested on: HT29 colon
IGROV1 ovarian = tested on: IGROV1 ovarian
K-562 leukemia = tested on: K-562 leukemia
KM12 colon = tested on: KM12 colon
LOX IMVI melanoma = tested on: LOX IMVI melanoma
M14 melanoma = tested on: M14 melanoma
MALME-3M melanoma = tested on: MALME-3M melanoma
MCF7 breast = tested on: MCF7 breast
MDA-MB-231 breast = tested on: MDA-MB-231 breast
MDA-MB-435 = tested on: MDA-MB-435
MOLT-4 leukemia = tested on: MOLT-4 leukemia
NCI-H226 lung = tested on: NCI-H226 lung
NCI-H23 lung = tested on: NCI-H23 lung
NCI-H460 lung = tested on: NCI-H460 lung
NCI-H522 lung = tested on: NCI-H522 lung
NCI/ADR-RES ovarian = tested on: NCI/ADR-RES ovarian
OVCAR-3 ovarian = tested on: OVCAR-3 ovarian
OVCAR-4 ovarian = tested on: OVCAR-4 ovarian
OVCAR-5 ovarian = tested on: OVCAR-5 ovarian
OVCAR-8 ovarian = tested on: OVCAR-8 ovarian
PC-3 prostate = tested on: PC-3 prostate
RPMI-8226 leukemia = tested on: RPMI-8226 leukemia
RXF 393 renal = tested on: RXF 393 renal
SF-268 CNS = tested on: SF-268 CNS
SF-295 CNS = tested on: SF-295 CNS
SF-539 CNS = tested on: SF-539 CNS
SK-MEL-2 melanoma = tested on: SK-MEL-2 melanoma
SK-MEL-28 melanoma = tested on: SK-MEL-28 melanoma
SK-MEL-5 melanoma = tested on: SK-MEL-5 melanoma
SK-OV-3 ovarian = tested on: SK-OV-3 ovarian
SN12C renal = tested on: SN12C renal
SNB-19 CNS = tested on: SNB-19 CNS
SNB-75 CNS = tested on: SNB-75 CNS
SR leukemia = tested on: SR leukemia
SW-620 colon = tested on: SW-620 colon
T-47D breast = tested on: T-47D breast
TK-10 renal = tested on: TK-10 renal
U251 CNS = tested on: U251 CNS
UACC-257 melanoma = tested on: UACC-257 melanoma
UACC-62 melanoma = tested on: UACC-62 melanoma
UO-31 renal = tested on: UO-31 renal

Q: Which results are given for `CC(C)Cc1ccc(C(C)C(=O)NCc2ccc(Cn3c(=O)sn(CCCI)c3=O)cc2)cc1` (stereo unspecified)?
A: GI50 (786-0 renal): 0.475 µM; TGI (786-0 renal): 0.998 µM; GI50 (A498 renal): 1.43 µM; TGI (A498 renal): 2.75 µM; GI50 (A549 NSCLC): 1.39 µM; TGI (A549 NSCLC): 3.12 µM; GI50 (ACHN renal): 0.233 µM; TGI (ACHN renal): 0.633 µM; GI50 (BT-549 breast): 0.571 µM; TGI (BT-549 breast): 1.81 µM; GI50 (CAKI-1 renal): 0.404 µM; TGI (CAKI-1 renal): 1.61 µM; GI50 (CCRF-CEM leukemia): 0.279 µM; TGI (CCRF-CEM leukemia): > 100 µM; GI50 (COLO 205 colon): 0.271 µM; TGI (COLO 205 colon): 1.14 µM; GI50 (DU-145 prostate): 0.861 µM; TGI (DU-145 prostate): 2.12 µM; GI50 (EKVX NSCLC): 1.46 µM; TGI (EKVX NSCLC): 2.92 µM; GI50 (HCC-2998 colon): 1.75 µM; TGI (HCC-2998 colon): 3.38 µM; GI50 (HCT-116 colon): 0.134 µM; TGI (HCT-116 colon): 0.393 µM; GI50 (HCT-15 colon): 0.237 µM; TGI (HCT-15 colon): 0.738 µM; GI50 (HL-60(TB) leukemia): 0.775 µM; TGI (HL-60(TB) leukemia): > 22.7 µM; GI50 (HOP-62 NSCLC): 1.53 µM; TGI (HOP-62 NSCLC): 3.6 µM; GI50 (HOP-92 NSCLC): 0.308 µM; TGI (HOP-92 NSCLC): 1.56 µM; GI50 (HS 578T breast): 0.653 µM; TGI (HS 578T breast): 1.83 µM; GI50 (HT29 colon): 0.238 µM; TGI (HT29 colon): 0.75 µM; GI50 (IGROV1 ovarian): 0.453 µM; TGI (IGROV1 ovarian): 1.38 µM; GI50 (K-562 leukemia): 0.388 µM; TGI (K-562 leukemia): > 100 µM; GI50 (KM12 colon): 1.56 µM; TGI (KM12 colon): 3.25 µM; GI50 (LOX IMVI melanoma): 0.181 µM; TGI (LOX IMVI melanoma): 0.393 µM; GI50 (M14 melanoma): 0.429 µM; TGI (M14 melanoma): 1.34 µM; GI50 (MALME-3M melanoma): 1.41 µM; TGI (MALME-3M melanoma): 2.8 µM; GI50 (MCF7 breast): 0.397 µM; TGI (MCF7 breast): 2.03 µM; GI50 (MDA-MB-231 breast): 1.13 µM; TGI (MDA-MB-231 breast): 2.42 µM; GI50 (MDA-MB-435): 0.485 µM; TGI (MDA-MB-435): 1.77 µM; GI50 (MOLT-4 leukemia): 0.511 µM; TGI (MOLT-4 leukemia): > 28.3 µM; GI50 (NCI-H226 lung): 0.884 µM; TGI (NCI-H226 lung): 2.32 µM; GI50 (NCI-H23 lung): 1.32 µM; TGI (NCI-H23 lung): 2.79 µM; GI50 (NCI-H460 lung): 1.36 µM; TGI (NCI-H460 lung): 3.08 µM; GI50 (NCI-H522 lung): 0.309 µM; TGI (NCI-H522 lung): 1.04 µM; GI50 (NCI/ADR-RES ovarian): 1.35 µM; TGI (NCI/ADR-RES ovarian): 5.19 µM; GI50 (OVCAR-3 ovarian): 0.269 µM; TGI (OVCAR-3 ovarian): 0.791 µM; GI50 (OVCAR-4 ovarian): 0.736 µM; TGI (OVCAR-4 ovarian): 2.12 µM; GI50 (OVCAR-5 ovarian): 1.39 µM; TGI (OVCAR-5 ovarian): 2.84 µM; GI50 (OVCAR-8 ovarian): 0.523 µM; TGI (OVCAR-8 ovarian): 1.85 µM; GI50 (PC-3 prostate): 0.732 µM; TGI (PC-3 prostate): 2.07 µM; GI50 (RPMI-8226 leukemia): 0.34 µM; TGI (RPMI-8226 leukemia): 2.2 µM; GI50 (RXF 393 renal): 0.326 µM; TGI (RXF 393 renal): 1.33 µM; GI50 (SF-268 CNS): 1.46 µM; TGI (SF-268 CNS): 2.95 µM; GI50 (SF-295 CNS): 1.56 µM; TGI (SF-295 CNS): 3.08 µM; GI50 (SF-539 CNS): 0.804 µM; TGI (SF-539 CNS): 2.08 µM; GI50 (SK-MEL-2 melanoma): 1.34 µM; TGI (SK-MEL-2 melanoma): 2.88 µM; GI50 (SK-MEL-28 melanoma): 1.2 µM; TGI (SK-MEL-28 melanoma): 2.46 µM; GI50 (SK-MEL-5 melanoma): 1.46 µM; TGI (SK-MEL-5 melanoma): 2.78 µM; GI50 (SK-OV-3 ovarian): 2.88 µM; TGI (SK-OV-3 ovarian): 8.23 µM; GI50 (SN12C renal): 0.646 µM; TGI (SN12C renal): 1.97 µM; GI50 (SNB-19 CNS): 1.45 µM; TGI (SNB-19 CNS): 2.78 µM; GI50 (SNB-75 CNS): 0.558 µM; TGI (SNB-75 CNS): 1.96 µM; GI50 (SR leukemia): 0.364 µM; TGI (SR leukemia): > 100 µM; GI50 (SW-620 colon): 0.259 µM; TGI (SW-620 colon): 0.75 µM; GI50 (T-47D breast): 1.64 µM; TGI (T-47D breast): 5.93 µM; GI50 (TK-10 renal): 0.373 µM; TGI (TK-10 renal): 0.95 µM; GI50 (U251 CNS): 1.43 µM; TGI (U251 CNS): 2.89 µM; GI50 (UACC-257 melanoma): 1.28 µM; TGI (UACC-257 melanoma): 2.7 µM; GI50 (UACC-62 melanoma): 1.17 µM; TGI (UACC-62 melanoma): 2.44 µM; GI50 (UO-31 renal): 0.407 µM; TGI (UO-31 renal): 1.49 µM

Reference: PubChem BioAssay (NCI)
